PMC8909834, “An Orally Bioavailable and Highly Efficacious Inhibitor of CDK9/FLT3 for the Treatment of Acute Myeloid Leukemia” (Cancers, 2022)

What was measured:
Test in all cases: Kinase Hotspot radiolabel assay
Type in all cases: biochemical
Settings in all cases: read-out: % Residual Activity
PKG1a = molecular target: T1, PKG1a (Homo sapiens, UniProt Q13976)
T1 construct: purchased Reaction Biology Corporation (Kinase HotSpot)
Method in brief: (§1)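 Hotspot radioactive kinase assay, compound fixed at 1 µM, broad 369-kinase selectivity screen.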

CDK19/cyclin C = molecular target: T2, CDK19/cyclin C (Homo sapiens, UniProt Q9BWU1)
T2 construct: purchased Reaction Biology Corporation (Kinase HotSpot)
Method in brief: as §1

SNARK/NUAK2 = molecular target: T3, SNARK/NUAK2 (Homo sapiens, UniProt Q9H093)
T3 construct: purchased Reaction Biology Corporation (Kinase HotSpot)
T3 sequence (Q9H093 whole entry): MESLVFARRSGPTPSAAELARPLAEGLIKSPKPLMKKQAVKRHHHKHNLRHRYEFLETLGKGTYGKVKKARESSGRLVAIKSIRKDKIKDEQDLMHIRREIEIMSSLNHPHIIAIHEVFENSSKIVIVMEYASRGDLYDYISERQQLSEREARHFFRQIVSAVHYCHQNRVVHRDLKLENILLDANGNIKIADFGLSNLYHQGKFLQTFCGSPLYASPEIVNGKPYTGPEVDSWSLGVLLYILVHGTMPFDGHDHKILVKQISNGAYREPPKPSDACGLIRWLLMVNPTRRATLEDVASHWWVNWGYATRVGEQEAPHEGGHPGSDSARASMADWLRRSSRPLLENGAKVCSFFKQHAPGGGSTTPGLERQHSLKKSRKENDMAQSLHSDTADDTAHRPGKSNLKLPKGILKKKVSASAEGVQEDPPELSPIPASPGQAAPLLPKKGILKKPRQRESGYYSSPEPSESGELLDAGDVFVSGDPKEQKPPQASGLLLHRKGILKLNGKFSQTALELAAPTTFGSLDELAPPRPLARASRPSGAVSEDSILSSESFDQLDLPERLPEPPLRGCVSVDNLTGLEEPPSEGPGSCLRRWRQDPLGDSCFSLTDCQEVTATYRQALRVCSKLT
Method in brief: as §1

STK32B/YANK2 = molecular target: T4, STK32B/YANK2 (Homo sapiens, UniProt Q9NY57)
T4 construct: purchased Reaction Biology Corporation (Kinase HotSpot)
Method in brief: as §1

MLCK/MYLK = molecular target: T5, MLCK/MYLK (Homo sapiens, UniProt Q15746)
T5 construct: purchased Reaction Biology Corporation (Kinase HotSpot)
Method in brief: as §1

MLK4 = molecular target: T6, MLK4 (Homo sapiens, UniProt Q5TCX8)
T6 construct: purchased Reaction Biology Corporation (Kinase HotSpot)
Method in brief: as §1

BTK = molecular target: T7, BTK (Homo sapiens, UniProt Q06187)
T7 construct: purchased Reaction Biology Corporation (Kinase HotSpot)
T7 sequence (Q06187 whole entry): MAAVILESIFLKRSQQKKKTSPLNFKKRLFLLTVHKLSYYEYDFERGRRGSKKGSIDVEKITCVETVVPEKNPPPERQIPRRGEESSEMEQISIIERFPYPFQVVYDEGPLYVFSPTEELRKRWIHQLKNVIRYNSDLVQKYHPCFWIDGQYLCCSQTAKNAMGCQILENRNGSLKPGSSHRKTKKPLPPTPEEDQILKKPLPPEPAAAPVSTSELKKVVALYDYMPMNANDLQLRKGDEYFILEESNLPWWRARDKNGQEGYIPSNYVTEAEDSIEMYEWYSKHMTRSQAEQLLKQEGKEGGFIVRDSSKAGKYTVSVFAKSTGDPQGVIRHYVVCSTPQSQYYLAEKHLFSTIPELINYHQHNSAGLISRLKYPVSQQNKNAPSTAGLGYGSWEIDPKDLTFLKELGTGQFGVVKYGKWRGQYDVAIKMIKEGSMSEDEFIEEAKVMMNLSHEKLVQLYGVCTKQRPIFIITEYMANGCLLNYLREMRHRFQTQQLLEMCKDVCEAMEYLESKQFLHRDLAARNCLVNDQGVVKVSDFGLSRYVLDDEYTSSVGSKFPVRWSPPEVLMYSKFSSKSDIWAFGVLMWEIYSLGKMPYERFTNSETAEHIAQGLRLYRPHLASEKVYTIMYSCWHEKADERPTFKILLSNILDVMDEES
Method in brief: as §1

CSK = molecular target: T8, CSK (Homo sapiens, UniProt P41240)
T8 construct: purchased Reaction Biology Corporation (Kinase HotSpot)
Method in brief: as §1

MLCK2/MYLK2 = molecular target: T9, MLCK2/MYLK2 (Homo sapiens, UniProt Q9H1R3)
T9 construct: purchased Reaction Biology Corporation (Kinase HotSpot)
T9 sequence (Q9H1R3 whole entry): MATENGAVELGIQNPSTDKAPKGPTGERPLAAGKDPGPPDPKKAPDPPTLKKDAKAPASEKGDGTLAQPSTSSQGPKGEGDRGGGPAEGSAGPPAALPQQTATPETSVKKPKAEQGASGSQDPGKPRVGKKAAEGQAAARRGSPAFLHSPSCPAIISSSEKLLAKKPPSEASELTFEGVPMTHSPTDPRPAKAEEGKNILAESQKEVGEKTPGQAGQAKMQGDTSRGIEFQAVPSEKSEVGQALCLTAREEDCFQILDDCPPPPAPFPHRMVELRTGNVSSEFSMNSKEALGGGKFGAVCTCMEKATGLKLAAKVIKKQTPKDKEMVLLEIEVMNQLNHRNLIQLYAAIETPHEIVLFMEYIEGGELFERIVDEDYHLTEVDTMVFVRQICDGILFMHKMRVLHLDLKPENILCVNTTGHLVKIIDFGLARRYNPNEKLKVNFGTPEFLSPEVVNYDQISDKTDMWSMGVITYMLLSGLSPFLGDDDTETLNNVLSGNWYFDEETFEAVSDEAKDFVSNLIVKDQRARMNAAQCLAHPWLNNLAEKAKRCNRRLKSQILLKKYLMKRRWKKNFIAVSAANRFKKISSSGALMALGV
Method in brief: as §1

TIE2/TEK = molecular target: T10, TIE2/TEK (Homo sapiens, UniProt Q02763)
T10 construct: purchased Reaction Biology Corporation (Kinase HotSpot)
Method in brief: as §1

TEC = molecular target: T11, TEC (Homo sapiens, UniProt P42680)
T11 construct: purchased Reaction Biology Corporation (Kinase HotSpot)
Method in brief: as §1

CK1g1 = molecular target: T12, CK1g1 (Homo sapiens, UniProt Q9HCP0)
T12 construct: purchased Reaction Biology Corporation (Kinase HotSpot)
Method in brief: as §1

MEKK6 = molecular target: T13, MEKK6 (Homo sapiens, UniProt O95382)
T13 construct: purchased Reaction Biology Corporation (Kinase HotSpot)
Method in brief: as §1

RIPK4 = molecular target: T14, RIPK4 (Homo sapiens, UniProt P57078)
T14 construct: purchased Reaction Biology Corporation (Kinase HotSpot)
T14 sequence (P57078 whole entry): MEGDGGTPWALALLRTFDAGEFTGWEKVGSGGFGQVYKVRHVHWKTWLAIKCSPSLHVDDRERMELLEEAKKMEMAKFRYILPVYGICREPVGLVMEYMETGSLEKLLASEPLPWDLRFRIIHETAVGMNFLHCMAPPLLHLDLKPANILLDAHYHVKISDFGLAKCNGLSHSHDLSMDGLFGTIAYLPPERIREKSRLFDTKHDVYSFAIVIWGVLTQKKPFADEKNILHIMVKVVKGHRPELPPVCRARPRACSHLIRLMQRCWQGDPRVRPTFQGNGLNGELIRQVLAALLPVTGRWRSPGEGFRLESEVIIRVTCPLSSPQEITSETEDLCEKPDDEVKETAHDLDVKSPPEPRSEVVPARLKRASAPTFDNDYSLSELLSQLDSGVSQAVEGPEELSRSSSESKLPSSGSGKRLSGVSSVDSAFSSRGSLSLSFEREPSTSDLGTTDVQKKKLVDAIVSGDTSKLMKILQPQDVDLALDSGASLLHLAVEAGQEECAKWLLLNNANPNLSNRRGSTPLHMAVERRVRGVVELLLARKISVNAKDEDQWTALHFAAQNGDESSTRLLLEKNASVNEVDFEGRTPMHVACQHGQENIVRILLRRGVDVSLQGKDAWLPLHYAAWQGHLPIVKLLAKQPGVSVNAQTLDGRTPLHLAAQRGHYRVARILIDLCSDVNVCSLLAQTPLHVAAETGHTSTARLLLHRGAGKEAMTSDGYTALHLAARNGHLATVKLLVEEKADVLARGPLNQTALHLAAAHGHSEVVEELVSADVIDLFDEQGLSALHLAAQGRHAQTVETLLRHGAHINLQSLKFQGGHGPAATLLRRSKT
Method in brief: as §1

ULK2 = molecular target: T15, ULK2 (Homo sapiens, UniProt Q8IYT8)
T15 construct: purchased Reaction Biology Corporation (Kinase HotSpot)
Method in brief: as §1

FLT3 = molecular target: T16, FLT3 (Homo sapiens, UniProt P36888)
T16 construct: purchased Reaction Biology Corporation (Kinase HotSpot)
Method in brief: as §1

RSK3 = molecular target: T17, RSK3 (Homo sapiens, UniProt Q15349)
T17 construct: purchased Reaction Biology Corporation (Kinase HotSpot)
T17 sequence (Q15349 whole entry): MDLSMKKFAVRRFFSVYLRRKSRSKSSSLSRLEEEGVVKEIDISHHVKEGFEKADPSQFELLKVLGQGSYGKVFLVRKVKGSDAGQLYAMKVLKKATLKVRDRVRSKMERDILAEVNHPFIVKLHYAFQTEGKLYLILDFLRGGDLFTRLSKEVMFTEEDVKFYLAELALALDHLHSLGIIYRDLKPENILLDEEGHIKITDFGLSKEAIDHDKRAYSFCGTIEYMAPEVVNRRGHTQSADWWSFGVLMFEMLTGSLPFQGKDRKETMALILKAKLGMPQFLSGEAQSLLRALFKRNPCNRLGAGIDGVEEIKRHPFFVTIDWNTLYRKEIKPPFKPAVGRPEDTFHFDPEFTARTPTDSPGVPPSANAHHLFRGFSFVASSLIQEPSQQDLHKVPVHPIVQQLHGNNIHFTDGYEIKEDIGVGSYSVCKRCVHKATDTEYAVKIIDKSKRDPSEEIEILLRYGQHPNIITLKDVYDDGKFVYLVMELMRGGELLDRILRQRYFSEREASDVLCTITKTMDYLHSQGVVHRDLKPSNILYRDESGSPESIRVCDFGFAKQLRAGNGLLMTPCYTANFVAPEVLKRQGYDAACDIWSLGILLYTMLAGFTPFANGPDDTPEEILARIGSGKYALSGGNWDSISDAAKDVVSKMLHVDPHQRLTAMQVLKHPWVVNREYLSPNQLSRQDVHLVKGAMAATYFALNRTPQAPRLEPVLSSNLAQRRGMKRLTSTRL
Method in brief: as §1

EPHB3 = molecular target: T18, EPHB3 (Homo sapiens, UniProt P54753)
T18 construct: purchased Reaction Biology Corporation (Kinase HotSpot)
Method in brief: as §1

MAPKAPK5/PRAK = molecular target: T19, MAPKAPK5/PRAK (Homo sapiens, UniProt Q8IW41)
T19 construct: purchased Reaction Biology Corporation (Kinase HotSpot)
Method in brief: as §1

DMPK = molecular target: T20, DMPK (Homo sapiens, UniProt Q09013)
T20 construct: purchased Reaction Biology Corporation (Kinase HotSpot)
Method in brief: as §1

TXK = molecular target: T21, TXK (Homo sapiens, UniProt P42681)
T21 construct: purchased Reaction Biology Corporation (Kinase HotSpot)
Method in brief: as §1

SGK2 = molecular target: T22, SGK2 (Homo sapiens, UniProt Q9HBY8)
T22 construct: purchased Reaction Biology Corporation (Kinase HotSpot)
T22 sequence (Q9HBY8 whole entry): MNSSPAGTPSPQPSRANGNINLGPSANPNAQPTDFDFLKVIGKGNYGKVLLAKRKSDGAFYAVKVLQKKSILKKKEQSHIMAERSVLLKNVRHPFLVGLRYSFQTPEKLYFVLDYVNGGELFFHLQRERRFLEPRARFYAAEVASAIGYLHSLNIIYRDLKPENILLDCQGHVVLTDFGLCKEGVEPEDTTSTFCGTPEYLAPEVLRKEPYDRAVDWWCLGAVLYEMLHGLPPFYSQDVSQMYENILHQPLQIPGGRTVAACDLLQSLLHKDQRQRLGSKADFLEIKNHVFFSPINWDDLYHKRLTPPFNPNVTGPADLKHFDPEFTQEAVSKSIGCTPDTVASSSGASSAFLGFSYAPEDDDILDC
Method in brief: as §1

PIM3 = molecular target: T23, PIM3 (Homo sapiens, UniProt Q86V86)
T23 construct: purchased Reaction Biology Corporation (Kinase HotSpot)
Method in brief: as §1

LIMK2 = molecular target: T24, LIMK2 (Homo sapiens, UniProt P53671)
T24 construct: purchased Reaction Biology Corporation (Kinase HotSpot)
T24 sequence (P53671 whole entry): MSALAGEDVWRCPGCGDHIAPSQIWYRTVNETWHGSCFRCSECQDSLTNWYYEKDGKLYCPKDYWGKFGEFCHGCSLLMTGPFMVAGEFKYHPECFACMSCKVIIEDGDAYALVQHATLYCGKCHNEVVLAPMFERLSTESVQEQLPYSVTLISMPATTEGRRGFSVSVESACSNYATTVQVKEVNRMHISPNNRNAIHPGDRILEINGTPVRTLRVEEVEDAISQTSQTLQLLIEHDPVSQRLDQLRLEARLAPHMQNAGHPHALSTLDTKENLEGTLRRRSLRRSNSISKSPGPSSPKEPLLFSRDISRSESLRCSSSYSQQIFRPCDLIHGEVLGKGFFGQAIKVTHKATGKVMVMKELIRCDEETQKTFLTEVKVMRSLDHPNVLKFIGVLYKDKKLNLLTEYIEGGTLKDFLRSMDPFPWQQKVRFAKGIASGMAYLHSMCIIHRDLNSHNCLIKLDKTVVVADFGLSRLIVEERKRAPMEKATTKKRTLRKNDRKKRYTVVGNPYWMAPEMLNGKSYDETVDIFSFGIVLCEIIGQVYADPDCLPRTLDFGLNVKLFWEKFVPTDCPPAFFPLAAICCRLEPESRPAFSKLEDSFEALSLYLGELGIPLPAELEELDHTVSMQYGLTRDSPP
Method in brief: as §1

CAMK4 = molecular target: T25, CAMK4 (Homo sapiens, UniProt Q16566)
T25 construct: purchased Reaction Biology Corporation (Kinase HotSpot)
Method in brief: as §1

PHKg2 = molecular target: T26, PHKg2 (Homo sapiens, UniProt P15735)
T26 construct: purchased Reaction Biology Corporation (Kinase HotSpot)
Method in brief: as §1

MLK1/MAP3K9 = molecular target: T27, MLK1/MAP3K9 (Homo sapiens, UniProt P80192)
T27 construct: purchased Reaction Biology Corporation (Kinase HotSpot)
Method in brief: as §1

MARK1 = molecular target: T28, MARK1 (Homo sapiens, UniProt Q9P0L2)
T28 construct: purchased Reaction Biology Corporation (Kinase HotSpot)
Method in brief: as §1

GRK1 = molecular target: T29, GRK1 (Homo sapiens, UniProt Q15835)
T29 construct: purchased Reaction Biology Corporation (Kinase HotSpot)
T29 sequence (Q15835 whole entry): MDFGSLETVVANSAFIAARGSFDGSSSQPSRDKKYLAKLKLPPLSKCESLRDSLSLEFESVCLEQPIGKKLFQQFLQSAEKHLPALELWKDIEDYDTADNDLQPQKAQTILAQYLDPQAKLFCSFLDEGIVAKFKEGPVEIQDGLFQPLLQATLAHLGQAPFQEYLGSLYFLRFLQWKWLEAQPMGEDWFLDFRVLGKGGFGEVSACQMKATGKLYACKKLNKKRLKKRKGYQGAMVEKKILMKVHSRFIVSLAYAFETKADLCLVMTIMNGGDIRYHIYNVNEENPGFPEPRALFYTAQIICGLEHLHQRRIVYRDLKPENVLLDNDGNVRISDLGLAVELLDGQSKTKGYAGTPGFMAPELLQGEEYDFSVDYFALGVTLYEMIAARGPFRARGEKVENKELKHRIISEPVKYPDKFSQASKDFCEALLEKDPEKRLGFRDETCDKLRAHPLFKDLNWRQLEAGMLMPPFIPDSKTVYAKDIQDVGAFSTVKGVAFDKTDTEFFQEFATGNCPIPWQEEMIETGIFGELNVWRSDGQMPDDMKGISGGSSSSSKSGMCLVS
Method in brief: as §1

JAK1 = molecular target: T30, JAK1 (Homo sapiens, UniProt P23458)
T30 construct: purchased Reaction Biology Corporation (Kinase HotSpot)
Method in brief: as §1

Cc1cnc(N[C@H]2CC[C@H](N)CC2)nc1-c1cnc2ccc(-c3ccccc3)cn12 [CDDD11-8]
remaining activity at 1 µM (PKG1a): 61.7%
remaining activity at 1 µM (CDK19/cyclin C): 38%
remaining activity at 1 µM (SNARK/NUAK2): 45.2%
remaining activity at 1 µM (STK32B/YANK2): 96.7%
remaining activity at 1 µM (MLCK/MYLK): 57.2%
remaining activity at 1 µM (MLK4): 112%
remaining activity at 1 µM (BTK): 87%
remaining activity at 1 µM (CSK): 91.2%
remaining activity at 1 µM (MLCK2/MYLK2): 25.9%
remaining activity at 1 µM (TIE2/TEK): 61.2%
remaining activity at 1 µM (TEC): 101%
remaining activity at 1 µM (CK1g1): 62.8%
remaining activity at 1 µM (MEKK6): 104%
remaining activity at 1 µM (RIPK4): 72.6%
remaining activity at 1 µM (ULK2): 113%
remaining activity at 1 µM (FLT3): 2.43%
remaining activity at 1 µM (RSK3): 45.6%
remaining activity at 1 µM (EPHB3): 92.7%
remaining activity at 1 µM (MAPKAPK5/PRAK): 99.4%
remaining activity at 1 µM (DMPK): 96.2%
remaining activity at 1 µM (TXK): 60.4%
remaining activity at 1 µM (SGK2): 113%
remaining activity at 1 µM (PIM3): 72.6%
remaining activity at 1 µM (LIMK2): 93.8%
remaining activity at 1 µM (CAMK4): 97.3%
remaining activity at 1 µM (PHKg2): 93.9%
remaining activity at 1 µM (MLK1/MAP3K9): 43%
remaining activity at 1 µM (MARK1): 46.6%
remaining activity at 1 µM (GRK1): 65%
remaining activity at 1 µM (JAK1): 93.3%
